Laboratory results published in patent US11939583B2, “Method of producing autotrophic organisms with altered photorespiration and improved CO2 fixation” (Max-Planck-Gesellschaft zur Förderung der Wissenschaften …, priority 2018, dated 2024).

Tests used:
[1] = target: T1, β-hydroxyaspartate dehydratase (BHAD) (Paracoccus denitrificans, UniProt A1B8Z2); experiment: Enzyme assay, kinetic parameters of BHAD; format: biochemical, Paracoccus denitrificans DSM 413; conditions: 30° C., pH 7.5, ISRed as coupling enzyme
T1 construct: His-tag (N); made in house; host or cells: E. coli BL21 AI
Experimental: (§1) In all enzyme assays, the oxidation of NADH or NADPH was followed at 340 nm or 360 nm on a Cary 60 UV-Vis photospectrometer (Agilent, Santa Clara, USA) in quartz cuvettes with a path length of 1 mm or 10 mm (Hellma Optik GmbH, Jena, Germany).
The enzyme assay to determine the kinetic parameters of BHAD was performed at 30° C. in a total volume of 300 μl. The reaction mixture contained 100 mM phosphate buffer pH 7.5, 0.1 mM PLP, 0.2 mM NADH, varying amounts of the substrate (2R,35)-β-hydroxyaspartate, and 29 nM BHAD. ISRed was added in excess as coupling enzyme to convert iminosuccinate into L-aspartate. (2R,3S)-β-Hydroxyaspartate was custom-synthesized by NewChem (Newcastle upon Tyne, United Kingdom), and was determined to be >95% pure by NMR analysis.

[2] = target: T2, β-hydroxyaspartate aldolase (BHAA) (Paracoccus denitrificans, UniProt A1B8Z1); experiment: Enzyme assay, kinetic parameters of BHAA; format: biochemical, Paracoccus denitrificans DSM 413; conditions: 30° C., pH 7.5, glycine with 5 mM glyoxylate, glyoxylate with 20 mM glycine
T2 construct: His-tag (N); made in house; host or cells: E. coli BL21 AI
T2 sequence (A1B8Z1 1-387): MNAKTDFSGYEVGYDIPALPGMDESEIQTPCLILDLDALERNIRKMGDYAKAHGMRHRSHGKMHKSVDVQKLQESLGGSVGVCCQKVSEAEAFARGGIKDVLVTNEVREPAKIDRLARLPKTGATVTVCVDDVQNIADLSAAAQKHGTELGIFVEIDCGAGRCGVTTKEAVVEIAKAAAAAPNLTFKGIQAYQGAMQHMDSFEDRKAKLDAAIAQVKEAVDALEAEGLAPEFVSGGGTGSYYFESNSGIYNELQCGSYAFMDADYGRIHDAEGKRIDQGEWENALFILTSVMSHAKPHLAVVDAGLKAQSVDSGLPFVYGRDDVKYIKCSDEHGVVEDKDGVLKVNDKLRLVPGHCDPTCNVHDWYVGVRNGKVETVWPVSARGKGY
Experimental: as §1
The reaction mixture contained 100 mM potassium phosphate buffer pH 7.5, 0.1 mM PLP, 0.2 mM NADH, 0.5 mM MgCl2, varying amounts of the respective substrates, and 4 nM BHAA. BHAD and ISRed were added in excess as coupling enzymes. […] To determine the kinetic parameters with (2R,3S)-β-hydroxyaspartate as substrate, the same assay mixture was used and GhrA was added in excess as coupling enzyme to convert glyoxylate into glycolate. To determine the kinetic parameters with D-threonine as substrate, the same assay mixture was used and alcohol dehydrogenase from Saccharomyces cerevisiae (Sigma-Aldrich, St. Louis, USA) was added in excess as coupling enzyme to convert acetaldehyde into ethanol.

Pbhc-BhcR complex = experiment: Electrophoretic mobility shift assay, effect of glyoxylate on complex formation; format: binding, P. denitrificans DSM 413; conditions: increasing concentrations of glyoxylate (0.01-1 mM), EMSA, FIG. 5
Source text: Fluorescently labeled DNA fragments for electrophoretic mobility shift assays (EMSA) were generated by PCR from genomic DNA of P. denitrificans DSM 413. For the Pbhc regulatory region, primers Pbhc_fw and Pbhc_rev-dye were used to generate a 238-bp fragment containing the putative Pbhc promoter. The primers AGAT-Fw and AGAT_rev-dye were used to generate a 255-bp fragment containing a fragment of the AGAT gene as negative controle. Pbhc rev dye and AGAT rev dye were 5′-labelled with the Dyomics 781 fluorescent dye (Microsynth AG, Balgach, Switzerland). Binding reactions between the DNA fragments (0.025 pmol), various amounts of the purified protein BhcR (400x/2,000x/4,000x/10,000x/20,000x/40,000x molar excess), and various concentrations of glyoxylate (0.01/0.05/0.1/0.2/0.5/1 mM final concentration) were performed in buffer A (20 mM potassium phosphate pH 7.0, 1 mM DTT, 5 mM MgCl2, 50 mM KCl, 15 μg mL^−1 bovine serum albumin, 50 μg mL^−1 herring sperm DNA, 5% v/v glycerol, 0.1% Tween20) in a total volume of 20 μL. After incubation of the reaction mixtures at 37° C. for 20 min, the samples were loaded onto a native 5% polyacrylamide gel and electrophoretically separated at 110 V for 60 min. BhcR:DNA-interactions were detected using an Odyssey FC Imaging System (LI-COR Biosciences, Lincoln, USA).

[3] = target: T3, iminosuccinate reductase (ISRed) (Paracoccus denitrificans, UniProt A1B8Z0); experiment: Enzyme assay, apparent kinetic parameters of ISRed; format: biochemical, Paracoccus denitrificans DSM 413; conditions: 30° C.; for Km: pH 7.5, cofactors measured with 2 mM (2R,3S)-β-hydroxyaspartate and BHAD, read-out: app. KM
T3 construct: His-tag (N); made in house; host or cells: E. coli BL21 AI
Experimental: as §1
The enzyme assay to determine the apparent kinetic parameters of ISRed was performed at 30° C. in a total volume of 250 μL. The reaction mixture contained 100 mM potassium phosphate buffer pH 7.5, 0.2 mM NADH, 0.1 mM PLP, varying amounts of (2R,3S)-β-hydroxyaspartate, and appropriate amounts of the enzymes BHAD and ISRed. Kinetics for iminosuccinate were measured with 15 nM ISRed, and appropriate amounts of (2R,3S)-β-hydroxyaspartate and BHAD to generate the desired concentrations of iminosuccinate at the onset of the reaction. Kinetics for NADH and NADPH were measured with 2 mM (2R,3S)-β-hydroxyaspartate, 214 nM BHAD, 28 nM ISRed, and varying amounts of the respective cofactor.

[4] = target: T4, aspartate-glyoxylate aminotransferase (AGAT) (Paracoccus denitrificans, UniProt A1B8Z3); experiment: Enzyme assay, kinetic parameters of AGAT; format: biochemical, Paracoccus denitrificans DSM 413; conditions: 30° C., pH 7.5, co-substrate fixed (20 mM L-aspartate, 5 mM glyoxylate, 20 mM oxaloacetate or 30 mM glycine); for Km: read-out: app. KM
T4 construct: His-tag (N); made in house; host or cells: E. coli BL21 AI
T4 sequence (A1B8Z3 1-396): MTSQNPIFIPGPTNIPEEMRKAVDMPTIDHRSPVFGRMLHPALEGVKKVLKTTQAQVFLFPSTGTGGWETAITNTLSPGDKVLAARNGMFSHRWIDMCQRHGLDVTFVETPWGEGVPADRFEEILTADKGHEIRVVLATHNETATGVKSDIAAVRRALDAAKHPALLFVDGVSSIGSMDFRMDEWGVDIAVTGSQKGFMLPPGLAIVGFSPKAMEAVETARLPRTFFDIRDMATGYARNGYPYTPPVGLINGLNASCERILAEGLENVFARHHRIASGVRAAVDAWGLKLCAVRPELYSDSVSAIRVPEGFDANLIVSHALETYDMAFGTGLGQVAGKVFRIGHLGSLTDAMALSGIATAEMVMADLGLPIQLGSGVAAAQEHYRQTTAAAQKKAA
Experimental: as §1
(§2) The enzyme assay to determine the kinetic parameters of AGAT with glyoxylate and L-aspartate as substrates was performed at 30° C. in a total volume of 300 μl. The reaction mixture contained 100 mM potassium phosphate buffer pH 7.5, 0.1 mM PLP, 0.2 mM NADH, varying amounts of the respective substrates, and 32 nM AGAT. Mdh was added in excess as coupling enzyme to convert oxaloacetate into malate. Kinetics for glyoxylate were measured with 20 mM L-aspartate; kinetics for L-aspartate were measured with 5 mM glyoxylate. To determine the kinetic parameters with oxaloacetate and glycine as substrates, the same assay mixture was used and GhrA was added in excess as coupling enzyme to convert glyoxylate into glycolate. […] To determine the kinetic parameters with L-serine or L-glutamate and glyoxylate as substrates, the same assay mixture was used and BHAD, BHAA, and Mdh were added in excess as coupling enzymes. Kinetics for L-serine and L-glutamate were measured with 5 mM glyoxylate.

[5] = tested on: expression levels of enzymes of the BHAP; experiment: Whole-cell shotgun proteomics, glycolate-grown vs. acetate-grown cells; format: cell-based, P. denitrificans; conditions: cells grown on 60 mM glycolate compared to 60 mM acetate, FIG. 4
Experimental: To acquire the proteome of P. denitrificans growing on different carbon sources, 20 mL cultures were grown to mid-exponential phase (OD600 ˜0.5) in minimal medium supplemented with 60 mM acetate or 60 mM glycolate. 4 replicate cultures were grown for each carbon source. Main cultures were inoculated from precultures grown in the same medium in a 1:1,000 dilution. Cultures were harvested by centrifugation at 4,000× g and 4° C. for 15 min. Supernatant was discarded and pellets were washed in 40 mL phosphate buffered saline (PBS; 137 mM NaCl, 2.7 mM KCl, 10 mM Na2HPO4, 1.8 mM KH2PO4, pH 7.4). […] Cell pellets in Eppendorf tubes were snap-frozen in liquid nitrogen and stored at −80° C. until they were used for the preparation of samples for LC-MS analysis and label-free quantification.
For whole cell lysis, cell pellets were first resuspended in 200 μL NH4HCO3 (100 mM supplemented with 5% SDS). […] Protein concentration in samples was determined via Pierce™ BCA assay (Thermo Scientific). […] Peptide mixes were recovered in 2% DMSO and then in 0.5% trifluoracetic acid (TFA) and analyzed via LC-MS on an electrospray ion source-connected Thermo QExactive Plus mass spectrometer (Thermo Scientific). […] Label-free data quantification was performed according to (Nature 2011, 473, 337; Proteomics 2013, 13, 2567; and J Proteome Res 2015, 14, 4472). […]

[6] = substrate: O=CC(=O)O; experiment: Enzyme assay, kinetic parameters of AGAT; format: biochemical, Paracoccus denitrificans DSM 413; conditions: other: enzyme AGAT, 30° C., pH 7.5, co-substrate fixed (20 mM L-aspartate, 5 mM glyoxylate, 20 mM oxaloacetate or 30 mM glycine)
Experimental: as §1, §2

[7] = substrate: O=C(O)CC(=O)C(=O)O; experiment: Enzyme assay, kinetic parameters of AGAT; format: biochemical, Paracoccus denitrificans DSM 413; conditions: other: enzyme AGAT, 30° C., pH 7.5, co-substrate fixed (20 mM L-aspartate, 5 mM glyoxylate, 20 mM oxaloacetate or 30 mM glycine)
Experimental: as §1, §2

[8] = substrate: N[C@@H](CO)C(=O)O; experiment: Enzyme assay, kinetic parameters of AGAT; format: biochemical, Paracoccus denitrificans DSM 413; conditions: other: enzyme AGAT, 30° C., pH 7.5, co-substrate fixed (20 mM L-aspartate, 5 mM glyoxylate, 20 mM oxaloacetate or 30 mM glycine)
Experimental: as §1, §2

[9] = substrate: NCC(=O)O; experiment: purified protein, by the assay type; conditions: other: enzyme AGAT, 30° C., pH 7.5, co-substrate fixed (20 mM L-aspartate, 5 mM glyoxylate, 20 mM oxaloacetate or 30 mM glycine)

In the case of N[C@@H](C(=O)O)[C@H](O)C(=O)O [(2R,3S)-β-hydroxyaspartate], the app. kcat [1] is reported as 35.01 ± 0.82 s⁻¹, the Km ([1]; read-out: app. KM) is reported as 200 ± 20 µM and the app. kcat [2] is reported as 33.11 ± 1.29 s⁻¹. It also gave a Km ([2]; read-out: app. KM) of 280 ± 30 µM.

For O=CC(=O)O [Glyoxylate], the “effect on binding of BHAR to the promoter region” value (Pbhc-BhcR complex) was “binding was decreased”.

With N=C(CC(=O)O)C(=O)O [Iminosuccinate] the Km [3] was 88 ± 10 µM and the app. kcat ([3]; pH 7.5, iminosuccinate generated from (2R,3S)-β-hydroxyaspartate by BHAD) was 201.04 ± 10.20 s⁻¹.

For N[C@@H](CC(=O)O)C(=O)O [L-Aspartate], the app. kcat [4] was 56.36 ± 0.73 s⁻¹ and the Km [4] was 2510 ± 100 µM.

N[C@@H](CCC(=O)O)C(=O)O [L-Glutamate] showed an app. kcat [4] of 5.03 ± 0.26 s⁻¹ and a Km [4] of 20600 ± 2330 µM.

With NC(=O)C1=CN([C@@H]2O[C@H](COP(=O)(O)OP(=O)(O)OC[C@H]3O[C@@H](n4cnc5c(N)ncnc54)[C@H](O)[C@@H]3O)[C@@H](O)[C@H]2O)C=CC1 [NADH] the Km [3] was 23 ± 3 µM.

O=C(O)CO [glycolate] was tested, and the “expression of all four enzymes of the BHAP” value [5] was “strongly increased expression”.

NADPH was tested, and the Km [3] was 330 ± 50 µM.

B1: aspartate-glyoxylate aminotransferase (AGAT) (Paracoccus denitrificans PD1222) (protein)
chain: MTSQNPIFIPGPTNIPEEMRKAVDMPTIDHRSPVFGRMLHPALEGVKKVLKTTQAQVFLFPSTGTGGWETAITNTLSPGDKVLAARNGMFSHRWIDMCQRHGLDVTFVETPWGEGVPADRFEEILTADKGHEIRVVLATHNETATGVKSDIAAVRRALDAAKHPALLFVDGVSSIGSMDFRMDEWGVDIAVTGSQKGFMLPPGLAIVGFSPKAMEAVETARLPRTFFDIRDMATGYARNGYPYTPPVGLINGLNASCERILAEGLENVFARHHRIASGVRAAVDAWGLKLCAVRPELYSDSVSAIRVPEGFDANLIVSHALETYDMAFGTGLGQVAGKVFRIGHLGSLTDAMALSGIATAEMVMADLGLPIQLGSGVAAAQEHYRQTTAAAQKKAA
notes: His-tag (N); made in house; host or cells: E. coli BL21 AI
B1 showed a Km [6] of 430 ± 20 µM, a kcat [6] of 58.1 ± 0.82 s⁻¹ and a kcat/Km [6] of 134000 M⁻¹ s⁻¹. The Km [7] was 2900 ± 270 µM, the kcat [7] was 0.76 ± 0.02 s⁻¹ and the kcat/Km [7] was 262 M⁻¹ s⁻¹. For the same molecule, the Km [8] was 2100 ± 240 µM, the kcat [8] was 8.82 ± 0.31 s⁻¹ and the kcat/Km [8] was 4200 M⁻¹ s⁻¹. It also gave a Km [9] of 9520 ± 400 µM, a kcat [9] of 0.76 s⁻¹ and a kcat/Km [9] of 79.7 M⁻¹ s⁻¹.
